In patent US8785457B2 (Cellzome Limited, priority 2009, dated 2014):
Read-outs that look alike come from different tables or passages of the source.

What was measured:
[1] = molecular target: T1, PI3K delta (PI3 Kd) (Homo sapiens, UniProt O00329); assay: kinobeads assay, PI3K delta; assay type: binding; conditions: kinobeads assay, read-out: Inhibition values (IC50) PI3Kd
T1 construct: endogenous in cells; host or cells: Jurkat, clone E6-1 (ATCC TIB-152) cell lysate
In short: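 Competitive binding in Jurkat cell lysate (5 mg/mL protein) against beads carrying an immobilized phenylmorpholin-chromen ligand, in DP buffer pH 7.4 with NP40, DTT and NaF. Bead-bound kinases were eluted and quantified by antibody dot blot with infrared detection, and IC50 was taken from dose-response curves of a 1:3 dilution series.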

[2] = tested on: S6RP serine-240/244 phosphorylation; assay: In vitro Phospho-S6 cellular assay (pS6RP S240/244) in HEK293T/17 cells; assay type: cell-based; conditions: Homo sapiens, 2 hours, read-out: pS6 IC50
In short: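 Compounds were tested at eight concentrations on adhered HEK293T/17 cells for 2 h at 37 °C (2% FCS, 0.1% DMSO), at 80,000 cells/well for pAkt S473 and 40,000 for pS6RP S240/244. Lysates were captured on phospho-specific antibody MSD plates with Sulfo-Tag detection. Values came from nonlinear variable-slope regression.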

T1 sequence (O00329 whole entry): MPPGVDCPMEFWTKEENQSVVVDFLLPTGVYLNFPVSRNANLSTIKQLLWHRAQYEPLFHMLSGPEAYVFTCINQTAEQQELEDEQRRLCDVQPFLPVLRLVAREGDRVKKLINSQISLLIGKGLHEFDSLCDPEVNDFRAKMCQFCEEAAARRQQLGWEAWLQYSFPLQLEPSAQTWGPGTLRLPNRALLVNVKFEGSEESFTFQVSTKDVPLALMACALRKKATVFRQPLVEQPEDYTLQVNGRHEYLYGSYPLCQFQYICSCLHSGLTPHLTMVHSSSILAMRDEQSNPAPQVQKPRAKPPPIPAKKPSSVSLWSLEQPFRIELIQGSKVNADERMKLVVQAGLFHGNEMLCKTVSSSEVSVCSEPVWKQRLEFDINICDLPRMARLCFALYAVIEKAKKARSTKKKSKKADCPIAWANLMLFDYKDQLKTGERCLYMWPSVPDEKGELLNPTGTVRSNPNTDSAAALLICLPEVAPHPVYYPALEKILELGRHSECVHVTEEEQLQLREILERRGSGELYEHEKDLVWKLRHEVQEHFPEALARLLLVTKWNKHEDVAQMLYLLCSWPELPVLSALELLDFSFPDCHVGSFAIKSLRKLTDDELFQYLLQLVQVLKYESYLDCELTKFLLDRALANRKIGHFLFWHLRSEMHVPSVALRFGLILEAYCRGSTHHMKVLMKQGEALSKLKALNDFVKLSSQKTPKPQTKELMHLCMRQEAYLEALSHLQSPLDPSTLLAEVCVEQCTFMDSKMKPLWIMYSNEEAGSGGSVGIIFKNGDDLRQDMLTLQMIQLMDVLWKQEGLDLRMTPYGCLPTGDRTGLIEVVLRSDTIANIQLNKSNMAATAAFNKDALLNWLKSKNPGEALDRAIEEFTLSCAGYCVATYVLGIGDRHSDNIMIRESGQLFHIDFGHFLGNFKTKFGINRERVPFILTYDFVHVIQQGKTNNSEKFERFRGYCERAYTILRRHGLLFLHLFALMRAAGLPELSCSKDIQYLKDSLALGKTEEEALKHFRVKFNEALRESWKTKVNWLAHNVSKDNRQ
T1 sequence (P27986 whole entry partner): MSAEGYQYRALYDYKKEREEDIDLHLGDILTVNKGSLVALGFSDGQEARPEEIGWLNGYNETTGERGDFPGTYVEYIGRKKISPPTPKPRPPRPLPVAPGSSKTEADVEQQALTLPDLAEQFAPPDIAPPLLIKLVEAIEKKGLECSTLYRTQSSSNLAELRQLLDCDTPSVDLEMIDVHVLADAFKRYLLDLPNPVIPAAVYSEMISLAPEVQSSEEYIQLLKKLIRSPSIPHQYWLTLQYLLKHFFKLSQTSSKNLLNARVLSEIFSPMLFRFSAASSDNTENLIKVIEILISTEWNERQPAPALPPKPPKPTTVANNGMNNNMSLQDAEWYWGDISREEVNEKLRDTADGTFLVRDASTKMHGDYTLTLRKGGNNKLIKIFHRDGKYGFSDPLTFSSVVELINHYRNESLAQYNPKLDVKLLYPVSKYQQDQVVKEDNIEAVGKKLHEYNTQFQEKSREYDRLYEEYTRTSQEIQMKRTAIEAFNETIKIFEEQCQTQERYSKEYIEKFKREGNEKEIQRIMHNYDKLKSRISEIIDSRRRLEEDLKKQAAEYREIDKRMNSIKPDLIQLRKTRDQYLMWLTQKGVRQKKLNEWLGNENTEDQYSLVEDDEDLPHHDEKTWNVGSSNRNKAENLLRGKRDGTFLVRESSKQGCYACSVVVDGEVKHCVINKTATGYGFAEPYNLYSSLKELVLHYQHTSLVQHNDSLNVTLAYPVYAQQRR

Row | SMILES | IC50 ([1]; Table 6) [nM] | IC50 [2] [nM] | IC50 ([1]; Table 4) [nM]
1 | CCNC(=O)Nc1ccc(-c2nc3c(c(N4CCOC[C@@H]4C)n2)CCN(C(=O)Cc2cccnc2)C3)cc1 [Example 91, (S)-1-ethyl-3-(4-(4-(3-methylmorpholino)-7-(2-(pyridin-3-yl)acetyl)-5,6,7,8-tetrahydropyrido[3,4-d]pyrimidin-2-yl)phenyl)urea] | > 10000 | 105 | –
2 | C[C@H]1COCCN1c1nc(-c2ccc(NC(=O)Nc3ccn(C)n3)cc2)nc2c1CN(C)C2 [Example 84, (S)-1-(1-methyl-1H-pyrazol-3-yl)-3-(4-(6-methyl-4-(3-methylmorpholino)-6,7-dihydro-5H-pyrrolo[3,4-d]pyrimidin-2-yl)phenyl)urea] | > 10000 | 165 | –
3 | CCNC(=O)Nc1ccc(-c2nc3c(c(N4CCOC[C@@H]4C)n2)CN(C(C)C)C3)cc1 [Example 74, (S)-1-ethyl-3-(4-(6-isopropyl-4-(3-methylmorpholino)-6,7-dihydro-5H-pyrrolo[3,4-d]pyrimidin-2-yl)phenyl)urea] | > 10000 | 110 | –
4 | CCNC(=O)Nc1ccc(-c2nc3c(c(N4CCOC[C@@H]4C)n2)CCN(CC(C)C)C3)cc1.O=CO [Example 76, (S)-1-ethyl-3-(4-(7-isobutyl-4-(3-methylmorpholino)-5,6,7,8-tetrahydropyrido[3,4-d]pyrimidin-2-yl)phenyl)urea formate] | > 10000 | 95 | –
5 | CCNC(=O)Nc1ccc(-c2nc3c(c(N4CCOC[C@@H]4C)n2)CCN(C)C3)c(F)c1 [Example 110, (S)-1-ethyl-3-(3-fluoro-4-(7-methyl-4-(3-methylmorpholino)-5,6,7,8-tetrahydropyrido[3,4-d]pyrimidin-2-yl)phenyl)urea] | > 10000 | 192 | –
6 | CCNC(=O)Nc1ccc(-c2nc3c(c(N4CCOC[C@@H]4C)n2)CN(CC(C)C)C3)cc1 [Example 66, (S)-1-ethyl-3-(4-(6-isobutyl-4-(3-methylmorpholino)-6,7-dihydro-5H-pyrrolo[3,4-d]pyrimidin-2-yl)phenyl)urea] | > 10000 | 74 | –
7 | CCNC(=O)Nc1ccc(-c2nc3c(c(N4CCOC[C@@H]4C)n2)CN(C2CCN(C(=O)OC)CC2)C3)cc1F [Example 122, (S)-methyl 4-(2-(4-(3-ethylureido)-3-fluorophenyl)-4-(3-methylmorpholino)-5H-pyrrolo[3,4-d]pyrimidin-6(7H)-yl)piperidine-1-carboxylate] | > 10000 | 175 | –
8 | CCNC(=O)Nc1ncc(-c2nc3c(c(N4CCOC[C@@H]4C)n2)CCN(C)C3)s1 [Example 106, (S)-1-ethyl-3-(5-(7-methyl-4-(3-methylmorpholino)-5,6,7,8-tetrahydropyrido[3,4-d]pyrimidin-2-yl)thiazol-2-yl)urea] | > 10000 | 294 | –
9 | CCNC(=O)Nc1ccc(-c2nc3c(c(N4CCOCC4)n2)CCN(C(C)=O)C3)cc1 [Example 97, 1-(4-(7-acetyl-4-morpholino-5,6,7,8-tetrahydropyrido[3,4-d]pyrimidin-2-yl)phenyl)-3-ethylurea] | 1000 to 10000 | 338 | –
10 | CCNC(=O)Nc1ccc(-c2nc3c(c(N4CCOCC4)n2)CCN(C(=O)C(C)(C)C)C3)cc1 [Example 98, 1-ethyl-3-(4-(4-morpholino-7-pivaloyl-5,6,7,8-tetrahydropyrido[3,4-d]pyrimidin-2-yl)phenyl)urea] | > 10000 | 45 | –
11 | CCNC(=O)Nc1ccc(-c2nc3c(c(N4CCOCC4)n2)CCN(C)C3)cc1 [Example 93, 1-ethyl-3-(4-(7-methyl-4-morpholino-5,6,7,8-tetrahydropyrido[3,4-d]pyrimidin-2-yl)phenyl)urea] | > 10000 | 196 | –

Next, values leading:

Row | IC50 ([1]; Table 6) [nM] | IC50 [2] [nM] | IC50 ([1]; Table 4) [nM] | SMILES
12 | > 10000 | 336 | – | C[C@H]1COCCN1c1nc(-c2ccc(NC(=O)NC3CC3)cc2)nc2c1CN(C(=O)C1CCOCC1)C2 [Example 129, (S)-1-cyclopropyl-3-(4-(4-(3-methylmorpholino)-6-(tetrahydro-2H-pyran-4-carbonyl)-6,7-dihydro-5H-pyrrolo[3,4-d]pyrimidin-2-yl)phenyl)urea]
13 | > 10000 | 83 | – | CCNC(=O)Nc1ccc(-c2nc3c(c(N4CCOC[C@@H]4C)n2)CN(C(=O)OCC)C3)cc1 [Example 90, (S)-ethyl 2-(4-(3-ethylureido)phenyl)-4-(3-methylmorpholino)-5H-pyrrolo[3,4-d]pyrimidine-6(7H)-carboxylate]
14 | > 10000 | 52 | > 10000 | CCNC(=O)Nc1ccc(-c2nc3c(c(N4CCOC[C@@H]4C)n2)CN(C(=O)OC(C)(C)C)C3)cc1 [Example 1, (S)-tert-butyl 2-(4-(3-ethylureido)phenyl)-4-(3-methylmorpholino)-5H-pyrrolo[3,4-d]pyrimidine-6(7H)-carboxylate]
15 | > 10000 | 99 | – | COC(=O)N1Cc2nc(-c3ccc(NC(=O)NC4CC4)cc3)nc(N3CCOC[C@@H]3C)c2C1 [Example 86, (S)-methyl 2-(4-(3-cyclopropylureido)phenyl)-4-(3-methylmorpholino)-5H-pyrrolo[3,4-d]pyrimidine-6(7H)-carboxylate]
16 | > 10000 | 34 | > 10000 | CCNC(=O)Nc1ccc(-c2nc3c(c(N4CCOC[C@@H]4C)n2)CCN(C(=O)C(C)(C)C)C3)cc1 [Example 58, (S)-1-ethyl-3-(4-(4-(3-methylmorpholino)-7-pivaloyl-5,6,7,8-tetrahydropyrido[3,4-d]pyrimidin-2-yl)phenyl)urea]
17 | > 10000 | 22 | > 10000 | CC(C)C(=O)N1CCc2c(nc(-c3ccc(NC(=O)NC4CC4)cc3)nc2N2CCOC[C@@H]2C)C1 [Example 61, (S)-1-cyclopropyl-3-(4-(7-isobutyryl-4-(3-methylmorpholino)-5,6,7,8-tetrahydropyrido[3,4-d]pyrimidin-2-yl)phenyl)urea]
18 | > 10000 | 83 | – | CCNC(=O)N1CCc2c(nc(-c3ccc(NC(=O)NC4CC4)cc3)nc2N2CCOC[C@@H]2C)C1 [Example 88, (S)-2-(4-(3-cyclopropylureido)phenyl)-N-ethyl-4-(3-methylmorpholino)-5,6-dihydropyrido[3,4-d]pyrimidine-7(8H)-carboxamide]
19 | 1000 to 10000 | 690 | – | C[C@H]1COCCN1c1nc(-c2ccc(NC(N)=O)cc2)nc2c1CN(C)C2 [Example 71, (S)-1-(4-(6-methyl-4-(3-methylmorpholino)-6,7-dihydro-5H-pyrrolo[3,4-d]pyrimidin-2-yl)phenyl)urea]
20 | > 10000 | 140 | – | COC(=O)N1CCc2c(nc(-c3ccc(NC(=O)NC4CC4)cc3)nc2N2CCOC[C@@H]2C)C1 [Example 83, (S)-methyl 2-(4-(3-cyclopropylureido)phenyl)-4-(3-methylmorpholino)-5,6-dihydropyrido[3,4-d]pyrimidine-7(8H)-carboxylate]
21 | > 10000 | 149 | – | CC(C)CN1Cc2nc(-c3ccc(NC(=O)NC4CC4)cc3)nc(N3CCOC[C@@H]3C)c2C1 [Example 65, (S)-1-cyclopropyl-3-(4-(6-isobutyl-4-(3-methylmorpholino)-6,7-dihydro-5H-pyrrolo[3,4-d]pyrimidin-2-yl)phenyl)urea]
22 | > 10000 | 160 | > 10000 | CCNC(=O)Nc1ccc(-c2nc3c(c(N4CCOC[C@@H]4C)n2)CCN(C(C)=O)C3)cc1 [Example 59, (S)-1-(4-(7-acetyl-4-(3-methylmorpholino)-5,6,7,8-tetrahydropyrido[3,4-d]pyrimidin-2-yl)phenyl)-3-ethylurea]
